Legend:
[1] = biological target: T1, NS5B from the BK strain (genotype 1b) (Hepatitis C virus genotype 1b, UniProt P26663); experiment: Hepatitis C polymerase inhibition, NS5B BK strain, 33P-GTP filter assay; type: biochemical; settings: Table 1B; NS5B BK strain; read-out: BK IC50
T1 construct: NS5B from the BK strain (genotype 1b) is expressed in E. coli as a protein in which the 21 C-terminal amino acids are replaced; made in house; host or cells: E. coli
Method in brief: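 E. coli-expressed NS5B (BK, genotype 1b) with the 21 C-terminal residues replaced by a linker-His6 tag was preincubated with compound for 15 min at room temperature. It then extended a hairpin-primed heteropolymeric RNA (~3 nM, ~760 nt product) with α-[33P]-GTP for 2 h at 22–25° C. The reaction was stopped with EDTA, and incorporated label was counted on filters.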

[2] = biological target: BB7 (RNA-dependent RNA polymerase hepatitis C virus protein sequence derived from HCV replicon) (Hepatitis C virus genotype 1b, UniProt Q9WMX2); experiment: Hepatitis C polymerase inhibition, BB7 sequence; type: biochemical; settings: Table 1B
Sequence of BB7 (RNA-dependent RNA polymerase hepatitis C virus protein sequence derived from HCV replicon) (Q9WMX2 2420-3010): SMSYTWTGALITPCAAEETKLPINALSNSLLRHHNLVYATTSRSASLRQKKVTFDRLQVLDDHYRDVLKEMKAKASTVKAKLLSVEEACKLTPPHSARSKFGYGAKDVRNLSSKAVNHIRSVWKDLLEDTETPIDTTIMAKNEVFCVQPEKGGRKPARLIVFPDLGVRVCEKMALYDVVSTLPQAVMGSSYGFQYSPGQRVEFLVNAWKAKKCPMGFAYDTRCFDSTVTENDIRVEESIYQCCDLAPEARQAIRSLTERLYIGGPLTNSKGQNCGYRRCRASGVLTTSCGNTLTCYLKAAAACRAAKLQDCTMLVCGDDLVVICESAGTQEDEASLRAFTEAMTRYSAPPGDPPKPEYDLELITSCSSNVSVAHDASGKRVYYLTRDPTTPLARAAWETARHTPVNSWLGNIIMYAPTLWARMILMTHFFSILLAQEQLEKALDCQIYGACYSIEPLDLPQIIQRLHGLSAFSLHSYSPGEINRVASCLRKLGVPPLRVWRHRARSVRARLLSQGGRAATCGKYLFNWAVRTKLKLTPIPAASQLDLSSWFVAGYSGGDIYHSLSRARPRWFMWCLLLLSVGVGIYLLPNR

T1 sequence (P26663 2420-2989): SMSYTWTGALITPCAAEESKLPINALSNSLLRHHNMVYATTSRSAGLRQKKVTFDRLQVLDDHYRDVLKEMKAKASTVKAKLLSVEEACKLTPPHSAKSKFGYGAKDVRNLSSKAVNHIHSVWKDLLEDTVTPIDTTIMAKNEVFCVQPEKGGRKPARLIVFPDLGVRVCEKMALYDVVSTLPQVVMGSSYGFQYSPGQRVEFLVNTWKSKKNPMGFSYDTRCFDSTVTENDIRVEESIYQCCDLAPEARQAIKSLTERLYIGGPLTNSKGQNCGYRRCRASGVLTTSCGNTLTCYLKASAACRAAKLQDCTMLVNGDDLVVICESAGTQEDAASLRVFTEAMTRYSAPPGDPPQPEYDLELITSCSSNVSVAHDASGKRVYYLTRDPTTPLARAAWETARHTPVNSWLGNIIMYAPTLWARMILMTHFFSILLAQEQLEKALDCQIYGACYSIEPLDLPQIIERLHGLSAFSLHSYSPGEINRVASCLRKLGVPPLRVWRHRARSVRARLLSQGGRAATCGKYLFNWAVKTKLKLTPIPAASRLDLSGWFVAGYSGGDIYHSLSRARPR

Structure (SMILES)	IC50 [1] [µM]	IC50 [2] [µM]
COCCC1(CC(=O)O)OCCc2c1[nH]c1c(Cl)ccc(C(F)(F)F)c21 (centres unmarked) [Example 265, [8-chloro-1-(2-methoxyethyl)-5-trifluoromethyl-1,3,4,9-tetrahydropyrano[3,4-b]indol-1-yl]acetic acid]	20	22
CCOCC1(CC(=O)O)OCCc2c1[nH]c1c(Cl)ccc(C(F)(F)F)c21 (centres unmarked) [Example 266, (8-chloro-1-ethoxymethyl-5-trifluoromethyl-1,3,4,9-tetrahydropyrano[3,4-b]indol-1-yl)acetic acid]	14	17
O=C(O)CC1(C2CCC2)OCCc2c1[nH]c1c(Cl)ccc(C(F)(F)F)c21 (centres unmarked) [Example 267, (8-chloro-1-cyclobutyl-5-trifluoromethyl-1,3,4,9-tetrahydropyrano[3,4-b]indol-1-yl)acetic acid]	0.66	2.3
CCCC1(CC(=O)O)OCCc2c1[nH]c1c(F)ccc(C(F)(F)F)c21 (centres unmarked) [Example 268, (8-fluoro-1-propyl-5-trifluoromethyl-1,3,4,9-tetrahydropyrano[3,4-b]indol-1-yl)acetic acid]	4.6	6.1
O=C(O)CC1(C2CCC2)OCCc2c1[nH]c1c(F)ccc(C(F)(F)F)c21 (centres unmarked) [Example 269, (1-cyclobutyl-8-fluoro-5-trifluoromethyl-1,3,4,9-tetrahydropyrano[3,4-b]indol-1-yl)acetic acid]	9.4	9.4
O=C(O)CC1(C2CCCC2)OCCc2c1[nH]c1c(F)ccc(C(F)(F)F)c21 (centres unmarked) [Example 270, (1-cyclopentyl-8-fluoro-5-trifluoromethyl-1,3,4,9-tetrahydropyrano[3,4-b]indol-1-yl)acetic acid]	20	17
CCCC1(CC(=O)O)OCCc2c1[nH]c1c(C(F)(F)F)ccc(C(F)(F)F)c21 (centres unmarked) [Example 271, [5,8-bis(trifluoromethyl)-1-propyl-1,3,4,9-tetrahydropyrano[3,4-b]indol-1-yl]acetic acid]	2.7	3.5
CCCC1(CC(=O)O)OCCc2c1[nH]c1c(C)ccc(C(F)(F)F)c21 (centres unmarked) [Example 272, (8-methyl-1-propyl-5-trifluoromethyl-1,3,4,9-tetrahydropyrano[3,4-b]indol-1-yl)acetic acid]	0.5	1.5
CCCCC1(CC(=O)O)OCCc2c1[nH]c1c(C)ccc(C(F)(F)F)c21 (centres unmarked) [Example 273, (8-methyl-1-butyl-5-trifluoromethyl-1,3,4,9-tetrahydropyrano[3,4-b]indol-1-yl)acetic acid]	1.4	6.5
Cc1ccc(C(F)(F)F)c2c3c([nH]c12)C(CC(=O)O)(C1CC1)OCC3 (centres unmarked) [Example 274, (1-cyclopropyl-8-methyl-5-trifluoromethyl-1,3,4,9-tetrahydropyrano[3,4-b]indol-1-yl)acetic acid]	9.3	> 26
Cc1ccc(C(F)(F)F)c2c3c([nH]c12)C(CC(=O)O)(C1CCC1)OCC3 (centres unmarked) [Example 275, (1-cyclobutyl-8-methyl-5-trifluoromethyl-1,3,4,9-tetrahydropyrano[3,4-b]indol-1-yl)acetic acid]	1.2	3.5
CCCC1(CC(=O)O)OCCc2c1[nH]c1c(C#N)ccc(C(F)(F)F)c21 (centres unmarked) [Example 276, (8-cyano-1-propyl-5-trifluoromethyl-1,3,4,9-tetrahydropyrano[3,4-b]indol-1-yl)acetic acid]	1.3	1.7
CCC(C)C1(CC(=O)O)OCCc2c1[nH]c1c(C(N)=O)ccc(C(F)(F)F)c21 [Example 278, (1R*,10S)-[8-aminocarbonyl-1-(1-methylpropyl)-5-trifluoromethyl-1,3,4,9-tetrahydropyrano[3,4-b]indol-1-yl]acetic acid]	15	23
Cc1ccc(C#N)c2c3c([nH]c12)C(CCC(F)(F)F)(CC(=O)O)OCC3 (centres unmarked) [Example 280, [5-cyano-8-methyl-1-(3,3,3-trifluoropropyl)-1,3,4,9-tetrahydropyrano[3,4-b]indol-1-yl]acetic acid]	0.8	2
COCC1(CC(=O)O)OCCc2c1[nH]c1c(C)ccc(C#N)c21 (centres unmarked) [Example 281, (5-cyano-1-methoxymethyl-8-methyl-1,3,4,9-tetrahydropyrano[3,4-b]indol-1-yl)acetic acid]	> 30	> 30
CSCC1(CC(=O)O)OCCc2c1[nH]c1c(C)ccc(C#N)c21 (centres unmarked) [Example 282, (5-cyano-1-methylthiomethyl-8-methyl-1,3,4,9-tetrahydropyrano[3,4-b]indol-1-yl)acetic acid]	13	22
Cc1ccc(C#N)c2c3c([nH]c12)C(CC(=O)O)(C1CC1)OCC3 (centres unmarked) [Example 283, (5-cyano-1-cyclopropyl-8-methyl-1,3,4,9-tetrahydropyrano[3,4-b]indol-1-yl)acetic acid]	15	> 27

Structure (SMILES)	IC50 [1] [µM]	IC50 [2] [µM]
Cc1ccc(C#N)c2c3c([nH]c12)C(CC(=O)O)(C1CCC1)OCC3 (centres unmarked) [Example 284, (5-cyano-1-cyclobutyl-8-methyl-1,3,4,9-tetrahydropyrano[3,4-b]indol-1-yl)acetic acid]	1	2.3
Cc1ccc(C#N)c2c3c([nH]c12)[C@@](CC(=O)O)(C1CCC1)OCC3 [Example 285, (1R)-(5-cyano-1-cyclobutyl-8-methyl-1,3,4,9-tetrahydropyrano[3,4-b]indol-1-yl)acetic acid]	0.4	1.1
Cc1ccc(C#N)c2c3c([nH]c12)[C@](CC(=O)O)(C1CCC1)OCC3 [Example 286, (1S)-(5-cyano-1-cyclobutyl-8-methyl-1,3,4,9-tetrahydropyrano[3,4-b]indol-1-yl)acetic acid]	> 30	> 30
Cc1ccc(C#N)c2c3c([nH]c12)C(CC(=O)O)(C1CCCC1)OCC3 (centres unmarked) [Example 287, (5-cyano-1-cyclopentyl-8-methyl-1,3,4,9-tetrahydropyrano[3,4-b]indol-1-yl)acetic acid]	5.1	6.5
Cc1ccc(C#N)c2c3c([nH]c12)C(CC(=O)O)(CC1CCCC1)OCC3 (centres unmarked) [Example 288, (5-cyano-1-cyclopentylmethyl-8-methyl-1,3,4,9-tetrahydropyrano[3,4-b]indol-1-yl)acetic acid]	22	18
CC[C@H](C)[C@@]1(CC(=O)O)OCCc2c1[nH]c1c(C)ccc(C#N)c21 [Example 292, (1R,10S)-[5-cyano-8-methyl-1-(1-methylpropyl)-1,3,4,9-tetrahydropyrano[3,4-b]indol-1-yl]acetic acid]	0.13	0.26
CC[C@H](C)[C@]1(CC(=O)O)OCCc2c1[nH]c1c(C)ccc(C#N)c21 [Example 293, (1S,10S)-[5-cyano-8-methyl-1-(1-methylpropyl)-1,3,4,9-tetrahydropyrano[3,4-b]indol-1-yl]acetic acid]	> 30	> 30
CCCC1(CC(=O)O)OCCc2c1[nH]c1c(CC)ccc(C#N)c21 (centres unmarked) [Example 295, (5-cyano-8-ethyl-1-propyl-1,3,4,9-tetrahydropyrano[3,4-b]indol-1-yl)acetic acid]	3.6	3.1
CCCCC1(CC(=O)O)OCCc2c1[nH]c1c(CC)ccc(C#N)c21 (centres unmarked) [Example 296, (1-butyl-5-cyano-8-ethyl-1,3,4,9-tetrahydropyrano[3,4-b]indol-1-yl)acetic acid]	7.2	6.3
CCCC1(CC(=O)O)OCCc2c1[nH]c1c(C(C)C)ccc(C#N)c21 (centres unmarked) [Example 297, [5-cyano-8-(1-methylethyl)-1-propyl-1,3,4,9-tetrahydropyrano[3,4-b]indol-1-yl]acetic acid]	1.8	2.8
CCCC1(CC(=O)O)OCCc2c1[nH]c1c(C)ccc([N+](=O)[O-])c21 (centres unmarked) [Example 298, (8-methyl-5-nitro-1-propyl-1,3,4,9-tetrahydropyrano[3,4-b]indol-1-yl)acetic acid]	0.3	0.5
Cc1ccc([N+](=O)[O-])c2c3c([nH]c12)C(CC(=O)O)(C1CCC1)OCC3 (centres unmarked) [Example 299, (1-cyclobutyl-8-methyl-5-nitro-1,3,4,9-tetrahydropyrano[3,4-b]indol-1-yl]acetic acid]	0.5	0.9
N#Cc1ccc(F)c2[nH]c3c(c12)CCOC3(CCC(F)(F)F)CC(=O)O (centres unmarked) [Example 301, [5-cyano-8-fluoro-1-(3,3,3-trifluoropropyl)-1,3,4,9-tetrahydropyrano[3,4-b]indol-1-yl]acetic acid]	5.4	11.3
C=CCCC1(CC(=O)O)OCCc2c1[nH]c1c(F)ccc(C#N)c21 (centres unmarked) [Example 302, [1-(3-butenyl)-5-cyano-8-fluoro-1,3,4,9-tetrahydropyrano[3,4-b]indol-1-yl]acetic acid]	4	18
COCC1(CC(=O)O)OCCc2c1[nH]c1c(F)ccc(C#N)c21 (centres unmarked) [Example 303, (5-cyano-8-fluoro-1-methoxymethyl-1,3,4,9-tetrahydropyrano[3,4-b]indol-1-yl)acetic acid]	> 30	> 30
COCCC1(CC(=O)O)OCCc2c1[nH]c1c(F)ccc(C#N)c21 (centres unmarked) [Example 304, [5-cyano-8-fluoro-1-(2-methoxyethyl)-1,3,4,9-tetrahydropyrano[3,4-b]indol-1-yl]acetic acid]	> 30	> 30
CSCC1(CC(=O)O)OCCc2c1[nH]c1c(F)ccc(C#N)c21 (centres unmarked) [Example 305, (5-cyano-8-fluoro-1-methylthiomethyl-1,3,4,9-tetrahydropyrano[3,4-b]indol-1-yl)acetic acid]	> 30	> 30

From US7217730B2, “Method for the use of pyranoindole derivatives to treat infection with Hepatitis C virus” (Wyeth, priority 2002, dated 2007)
